Assay results published in patent publication US20220053764A1, “METHOD OF CONTROLLING WEEDS” (SUMITOMO CHEMICAL COMPANY, LIMITED, priority 2018, published 2022).
Where a name gives a salt, the structure may show the parent alone.

How the values were obtained:
Assay type in all cases: in vivo
[1] = system: glyphosate-resistant Amaranthus palmeri in which the number of copies of EPSPS gene had been increased; assay: Herbicidal effect, foliar spray on potted weeds in greenhouse; conditions: rating 0 to 100, 14 days after foliar spray, 200 L/ha
Procedure: (§1) In a plastic pot filled with soli were seeded glyphosate-resistant Amaranthus palmeri in which the number of copies of EPSPS gene had been increased (produced by Azlin Seed Service) and glyphosate-sensitive Amaranthus palmeri (produced by Azlin Seed Service). The weeds were cultivated in a greenhouse for 18 days, and then an aqueous spray liquid [i.e., a liquid prepared by diluting a predetermined amount of a trifludimoxazin formulation (i.e., an emulsifiable concentrate prepared by mixing 20 parts of trifludimoxazin with 80 parts of a liquid cocktail (i.e., a mixture of 5 parts of cyclohexanone and 1 part of SORPOL 2680X (manufactured by TOHO Chemical Industry Co., Ltd.))) with water containing a spreading agent] was sprayed uniformly from above the weeds at the amount of 200 L/ha using a sprayer. Subsequently, the weeds were allowed to grow in a greenhouse for 14 days, and then the herbicidal effect was examined. As a reference example, the same procedure was carried out, except that the trifludimoxazin formulation was replaced with a predetermined amount of a glyphosate formulation (i.e., a soluble liquid containing 660 g/L of glyphosate potassium salt: “ROUNDUP MAXLOAD” (manufactured by Nissan Chemical Corporation). The results are shown in the table 1.

[2] = system: glyphosate-sensitive Amaranthus palmeri; assay: as above; conditions: rating 0 to 100, 14 days after foliar spray, 200 L/ha
Procedure: as §1

[3] = system: glyphosate-resistant weeds (Amaranthus palmeri, waterhemp, kochia, marestail, Guernsey fleabane, fleabane, goosegrass, darnel) and volunteer …; assay: Soil treatment on day of seeding, greenhouse pot test (Example 1); conditions: soil treatment at 6.25, 12.5, 25, 50, 100 or 150 g/ha; 200 L/ha; twenty-eight days after the treatment
Procedure: (§2) In a plastic pot filled with soil are seeded glyphosate-resistant Amaranthus palmeri in which the number of copies of EPSPS gene has been increased, glyphosate-resistant waterhemp in which the number of copies of EPSPS gene has been increased, glyphosate-resistant kochia in which the number of copies of EPSPS gene has been increased, marestail which is resistant to glyphosate by involving an ABC transporter, Guernsey fleabane which is resistant to glyphosate by involving an ABC transporter, fleabane which is resistant to glyphosate by involving an ABC transporter, glyphosate-resistant goosegrass having Thr102Ile, glyphosate-resistant goosegrass having Pro106Ser, glyphosate-resistant goosegrass having Pro106A1a, glyphosate-resistant goosegrass having Pro106Leu, glyphosate-resistant goosegrass having Thr102Ile and Pro106Ser, glyphosate-resistant darnel having Thr102Ile, glyphosate-resistant darnel having Pro106Ser, glyphosate-resistant darnel having Pro106Ala, glyphosate-resistant darnel having Pro106Leu, volunteer glyphosate-tolerant soybean, and volunteer glyphosate-tolerant cotton. On the same day, the soil is treated with trifludimoxazin at the application rate of 6.25, 12.5, 25, 50, 100 or 150 g/ha. The amount of a liquid sprayed is 200 L/ha. Subsequently, the plants are cultivated in a greenhouse.

[4] = system: glyphosate-resistant weeds (Amaranthus palmeri, waterhemp, kochia, marestail, Guernsey fleabane, fleabane, goosegrass, darnel) and volunteer …; assay: Foliar treatment 21 days after seeding, greenhouse pot test (Example 2); conditions: foliar treatment at 6.25, 125, 25, 50, 100 or 150 g/ha; 200 L/ha; fourteen days after the treatment
Procedure: as §2, with “Pro106Ala,” for “Pro106A1a,”, “The plants are cultivated in a greenhouse for 21 days, and then trifludimoxazin is applied to foliage of” for “On”, “plants” for “same day, the soil is treated with trifludimoxazin”, “at” for “at the”, “[…],” for “12.5,”

Structure (SMILES) | Effect on glyphosate-resistant Amaranthus palmeri ([1]; application rate 1540 g/ha) | Effect on glyphosate-resistant Amaranthus palmeri ([1]; application rate 6160 g/ha) | Effect on glyphosate-sensitive Amaranthus palmeri ([2]; application rate 385 g/ha) | Effect on glyphosate-sensitive Amaranthus palmeri ([2]; application rate 1540 g/ha) | Effect on glyphosate-resistant Amaranthus palmeri ([1]; application rate 6.25 g/ha) | Effect on glyphosate-resistant Amaranthus palmeri ([1]; application rate 12.5 g/ha) | Effect on glyphosate-resistant Amaranthus palmeri ([1]; application rate 25 g/ha) | Effect on glyphosate-sensitive Amaranthus palmeri ([2]; application rate 6.25 g/ha) | Effect on glyphosate-sensitive Amaranthus palmeri ([2]; application rate 12.5 g/ha) | Effect on glyphosate-sensitive Amaranthus palmeri ([2]; application rate 25 g/ha) | effect against the weeds [3] | effect against the weeds [4]
O=C(O)CNCP(=O)(O)O [Glyphosate potassium salt, glyphosate potassium salt] | 20 | 70 | 100 | 100 | – | – | – | – | – | – | – | –
C#CCN1C(=O)C(F)(F)Oc2cc(F)c(-n3c(=O)n(C)c(=S)n(C)c3=O)cc21 [Trifludimoxazin, trifludimoxazin] | – | – | – | – | 100 | 100 | 100 | 65 | 70 | 80 | significant effect | significant effect
